One data set concerns the target T1, P-gp (Mus musculus, UniProt P21447).
T1 construct: from tissue; host or cells: living mice (brain/plasma distribution), wild type versus mdr1a (−/−)
Kind of data set: P-gp substrate test using mdr1a (−/−) B6 mice. Format: in vivo. Conditions: Kp in KO mouse (mdr1a (−/−) B6) / Kp in Wild mouse; for Kp at 2 h: mdr1a (−/−) B6 (KO) and C57BL/6J (wild), mouse, brain / plasma, po, 2 mg/kg, read-out: Kp ratio (2 mg/kg, po, 2 hr). Here is the method:
Animal: mdrla (−/−) B6 mice (KO mouse) or […] mice (Wild mouse)
1. Animals may be fed prior to dosing of the compounds of the present invention. 2. The compounds of the present invention were dosed to three animals for each time point and blood and brain samples were removed at selected time points (e.g. 15 min, 30 min, 1 hr, 2 hr, 4 hr, 6 hr, 8 hr, or 24 hr) after dosing. Blood (0.3-0.7 mL) was collected via trunk blood collection with syringe containing anticoagulants (EDTA and heparin). Blood and tissue (e.g. brain) samples were immediately placed on melting ice. 3. Blood samples were centrifuged (1780×g for 10 minutes) for cell removal to obtain plasma. Then, plasma samples were transferred to a clean tube and stored in a −70° C. freezer until analysis. 4. Tissue (e.g. brain) samples were homogenized at a 1:3 ratio of tissue weight to ml of stilled water and transferred to a clean tube and stored in a −70° C. freezer until analysis. 5. Plasma and tissue (e.g. brain) samples were prepared using protein prceipitation and analyzed by LC/MS/MS. The analytical method was calibrated by including a standard curve constructed with blank plasma or brain samples and known quantities of analyte. Quality control samples were included to monitor the accuracy and precision of the methodology. 6. Plasma and brain concentration values (ng/mL and ng/g) were introduced into an appropriate tool used for calculating the pharmacokinetic parameters. A common platform was the WinNonlin (Registered trademark) pharmacokinetic software modeling program.
Kp: Tissue to Plasma concentration ratio Kp ratio=Kp in KO mouse/Kp in Wild mouse KO/Wild ratio of AUC Tissue/AUC Plasma ={AUC Tissue/AUC Plasma (KO mouse)}/{AUC Tissue/AUC Plasma (Wild mouse)}

The next data set has as its target T2, CYP2C9 (Homo sapiens, UniProt P11712).
T2 construct: The commercially available pooled human liver microsomes are used as an enzyme resource; from tissue; host or cells: pooled human liver microsomes
The data set can be described thus: CYP inhibition test (CYP2C9). Particulars: pooled human liver microsomes; tolbutamide methyl-hydroxylation. Format: in vitro ADME. An outline of the steps:
(§1)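 Metabolite formation was quantified by LC/MS/MS: dextrorphan (2D6, 5 μmol/L dextromethorphan), terfenadine alcohol (3A4, 1 μmol/L terfenadine), 4′-hydroxymephenytoin (2C19, 50 μmol/L S-mephenytoin) and hydroxytolbutamide (2C9, 100 μmol/L tolbutamide). Reactions used NADPH-started pooled human liver microsomes (0.2 mg/mL) at 37 °C with compound at 1–20 μmol/L (four points). IC50 was calculated by logistic model relative to the DMSO control.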
(In general: Liver microsomes are vesicles of endoplasmic reticulum, rich in cytochrome P450 enzymes.)

The next data set deals with T3, CYP2D6 (Homo sapiens, UniProt P10635).
T3 construct: The commercially available pooled human liver microsomes are used as an enzyme resource; from tissue; host or cells: pooled human liver microsomes
The data set can be described thus: CYP inhibition test (CYP2D6). Particulars: pooled human liver microsomes; dextromethorphan O-demethylation. It is filed as in vitro ADME. In short, it runs like this: as §1

For data set [1], the target named is T4, P-gp (MDR1 expressing LLC-PK1 cells) (Homo sapiens, UniProt P08183).
T4 construct: host or cells: LLC-PK1
Kind of data set: P-gp substrate test. Format: in vitro ADME. Conditions: net flux = Efflux Ratio in MDR1 expressing cells / Efflux Ratio in parent LLC-PK1 cells. In short, it runs like this:
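MDR1-expressing LLC-PK1 and parental LLC-PK1 monolayers were incubated at 37° C; donor and receiver samples were quantified by LC/MS/MS, with digoxin (2 μM) as reference substrate. Efflux ratio is B-to-A over A-to-B permeability; net flux divides the MDR1-cell efflux ratio by the parental-cell ratio.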

Data set [2] can be described thus: Pharmacokinetic study (oral absorption). Particulars: bioavailability from AUCs of oral and intravenous administration; mouse or rat. It is filed as in vivo. On the procedure: (1l) Animal: mouse or rat (2) Breeding conditions: mouse or rat was allowed free access to the tap water and the solid food. (3) Dose and grouping: orally or intravenously administered at a predetermined dose: grouping was as follows (Dose depends on the compound) Oral administration: 1 to 30 mg/kg (n=2 to 3) Intravenous administration: 0.5 to 10 mg/kg (n=2 to 3) (4) Dosing formulation: for oral administration, in a solution or a suspension state; for intravenous administration, in a solubilized state (5) Dosing method: in oral administration, forcedly administer using a syringe attached a flexible feeding tube; in intravenous administration, administer from caudal vein using a syringe attached with a needle. (6) Evaluation items: blood was collected at the scheduled time, and the plasma concentration of the compound of the present invention was measured by LC/MS/MS (7) Statistical analysis: regarding the transition of the plasma concentration of the compound of the present invention, the area under the plasma concentration-time curve (AUC) was calculated by non-linear least squares program WinNonlin (Registered trademark), and the bioavailability (BA) of the compound of the present invention was calculated from the AUCs of the oral administration group and intravenous administration group

T2 sequence (P11712 whole entry): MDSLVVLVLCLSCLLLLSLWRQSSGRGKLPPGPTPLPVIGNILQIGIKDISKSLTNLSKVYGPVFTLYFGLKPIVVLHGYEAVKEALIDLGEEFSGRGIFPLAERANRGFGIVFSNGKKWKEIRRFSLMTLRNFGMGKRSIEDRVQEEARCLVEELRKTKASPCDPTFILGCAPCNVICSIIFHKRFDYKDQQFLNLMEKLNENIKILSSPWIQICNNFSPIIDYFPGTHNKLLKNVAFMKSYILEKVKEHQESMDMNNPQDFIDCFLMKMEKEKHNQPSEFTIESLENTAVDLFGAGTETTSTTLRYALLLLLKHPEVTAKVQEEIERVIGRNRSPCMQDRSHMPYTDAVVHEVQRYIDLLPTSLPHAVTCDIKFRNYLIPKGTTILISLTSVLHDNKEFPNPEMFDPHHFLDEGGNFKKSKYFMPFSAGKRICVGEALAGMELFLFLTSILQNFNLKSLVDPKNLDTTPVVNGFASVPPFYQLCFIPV
T4 sequence (P08183 whole entry): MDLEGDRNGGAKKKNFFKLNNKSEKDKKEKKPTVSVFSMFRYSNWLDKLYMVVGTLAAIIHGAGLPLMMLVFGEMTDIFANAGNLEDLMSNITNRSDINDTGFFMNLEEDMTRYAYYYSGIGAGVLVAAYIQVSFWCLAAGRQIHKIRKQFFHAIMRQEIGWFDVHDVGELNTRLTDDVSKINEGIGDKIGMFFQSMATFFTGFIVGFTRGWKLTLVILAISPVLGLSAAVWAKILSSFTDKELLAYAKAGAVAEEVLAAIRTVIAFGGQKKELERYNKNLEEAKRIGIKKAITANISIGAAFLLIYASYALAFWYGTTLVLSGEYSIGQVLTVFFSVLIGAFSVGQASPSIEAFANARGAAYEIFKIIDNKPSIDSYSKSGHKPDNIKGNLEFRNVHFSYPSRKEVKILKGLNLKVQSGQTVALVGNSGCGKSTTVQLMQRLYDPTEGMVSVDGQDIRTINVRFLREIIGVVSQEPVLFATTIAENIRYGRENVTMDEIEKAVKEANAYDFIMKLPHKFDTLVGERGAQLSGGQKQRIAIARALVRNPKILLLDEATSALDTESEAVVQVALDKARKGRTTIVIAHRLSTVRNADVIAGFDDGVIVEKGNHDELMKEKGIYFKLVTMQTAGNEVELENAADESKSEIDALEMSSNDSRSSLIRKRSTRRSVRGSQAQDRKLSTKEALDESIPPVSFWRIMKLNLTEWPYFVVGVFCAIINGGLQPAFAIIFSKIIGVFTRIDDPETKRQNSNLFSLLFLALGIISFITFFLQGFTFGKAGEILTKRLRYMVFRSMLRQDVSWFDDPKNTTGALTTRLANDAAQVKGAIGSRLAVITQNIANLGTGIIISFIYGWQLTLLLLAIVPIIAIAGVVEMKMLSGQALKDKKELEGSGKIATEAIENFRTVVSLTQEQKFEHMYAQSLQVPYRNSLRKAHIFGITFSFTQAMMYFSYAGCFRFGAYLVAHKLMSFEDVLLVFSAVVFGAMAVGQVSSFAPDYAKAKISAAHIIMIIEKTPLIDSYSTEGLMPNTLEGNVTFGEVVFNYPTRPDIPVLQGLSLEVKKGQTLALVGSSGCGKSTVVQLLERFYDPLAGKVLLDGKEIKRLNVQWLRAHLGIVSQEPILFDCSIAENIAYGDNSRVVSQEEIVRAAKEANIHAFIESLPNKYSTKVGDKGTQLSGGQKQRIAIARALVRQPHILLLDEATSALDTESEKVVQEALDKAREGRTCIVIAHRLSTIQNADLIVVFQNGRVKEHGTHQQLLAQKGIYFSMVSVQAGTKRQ
T1 sequence (P21447 whole entry): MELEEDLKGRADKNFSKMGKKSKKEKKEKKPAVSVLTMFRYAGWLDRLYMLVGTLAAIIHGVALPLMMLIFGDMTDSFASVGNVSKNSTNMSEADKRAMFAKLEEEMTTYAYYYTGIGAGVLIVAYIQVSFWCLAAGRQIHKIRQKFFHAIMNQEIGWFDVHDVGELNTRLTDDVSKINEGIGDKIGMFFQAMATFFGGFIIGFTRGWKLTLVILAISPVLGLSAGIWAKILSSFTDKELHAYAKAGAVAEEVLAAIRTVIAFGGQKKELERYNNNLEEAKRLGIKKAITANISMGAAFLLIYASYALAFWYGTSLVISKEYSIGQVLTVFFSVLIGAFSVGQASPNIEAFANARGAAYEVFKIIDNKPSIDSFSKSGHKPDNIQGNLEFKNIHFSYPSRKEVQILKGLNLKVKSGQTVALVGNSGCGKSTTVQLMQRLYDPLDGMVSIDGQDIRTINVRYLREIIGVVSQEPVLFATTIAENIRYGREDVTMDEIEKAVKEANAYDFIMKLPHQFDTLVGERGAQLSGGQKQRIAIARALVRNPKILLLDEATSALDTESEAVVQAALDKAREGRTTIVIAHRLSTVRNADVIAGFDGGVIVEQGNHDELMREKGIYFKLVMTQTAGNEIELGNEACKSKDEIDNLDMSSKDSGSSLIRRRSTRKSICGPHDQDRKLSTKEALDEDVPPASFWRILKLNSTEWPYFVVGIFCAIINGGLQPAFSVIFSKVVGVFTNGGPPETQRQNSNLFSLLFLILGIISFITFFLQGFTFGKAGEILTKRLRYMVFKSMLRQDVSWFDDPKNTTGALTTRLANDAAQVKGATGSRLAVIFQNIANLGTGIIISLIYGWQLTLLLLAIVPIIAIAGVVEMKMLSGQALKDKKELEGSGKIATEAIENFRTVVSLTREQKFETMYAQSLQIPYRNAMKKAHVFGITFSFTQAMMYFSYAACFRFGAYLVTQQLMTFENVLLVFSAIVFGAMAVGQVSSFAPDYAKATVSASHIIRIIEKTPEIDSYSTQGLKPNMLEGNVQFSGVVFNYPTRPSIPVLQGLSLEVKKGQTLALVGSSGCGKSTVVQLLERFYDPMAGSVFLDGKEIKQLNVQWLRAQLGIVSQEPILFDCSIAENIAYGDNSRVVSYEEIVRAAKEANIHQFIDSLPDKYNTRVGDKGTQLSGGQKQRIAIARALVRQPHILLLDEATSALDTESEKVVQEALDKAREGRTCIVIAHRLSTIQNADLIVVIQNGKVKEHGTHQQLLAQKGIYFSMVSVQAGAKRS
T3 sequence (P10635 whole entry): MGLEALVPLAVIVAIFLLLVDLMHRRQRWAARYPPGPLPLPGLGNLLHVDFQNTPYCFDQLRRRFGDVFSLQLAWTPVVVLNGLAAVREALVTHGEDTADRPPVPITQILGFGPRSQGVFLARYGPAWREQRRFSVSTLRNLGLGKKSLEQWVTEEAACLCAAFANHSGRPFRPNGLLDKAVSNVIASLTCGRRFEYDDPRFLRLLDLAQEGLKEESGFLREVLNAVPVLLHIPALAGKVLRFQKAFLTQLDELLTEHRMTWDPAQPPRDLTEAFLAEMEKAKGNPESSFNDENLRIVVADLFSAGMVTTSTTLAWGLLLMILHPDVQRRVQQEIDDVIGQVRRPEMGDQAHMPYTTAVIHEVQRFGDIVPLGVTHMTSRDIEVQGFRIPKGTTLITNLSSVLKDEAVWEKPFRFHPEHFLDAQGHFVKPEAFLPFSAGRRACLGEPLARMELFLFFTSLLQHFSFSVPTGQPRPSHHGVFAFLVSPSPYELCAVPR

Turning to `C[C@H]1[C@@H](C(F)(F)F)OC(N)=N[C@]1(C)c1cc(NC(=O)c2ccc(C#N)cn2)ccc1F` [Compound I-28], on P-gp, the Kp at 2 h was 5.41. For the same compound, the IC50 against CYP2C9 and against CYP2D6 was no less than 20 µM each time. Further, in data set [1], the “ER ratio (Cell: MDR1/LLC-PK1)” value worked out at 1.2.
In the case of `C[C@]1(c2nc(NC(=O)c3ccc(C#N)cn3)ccc2F)N=C(N)S[C@H](CF)[C@@H]1F` [Compound I-4], the Kp at 2 h at P-gp was 2.92. Further, the half-maximal inhibitory concentration (IC50) was no less than 10 µM against CYP2C9 and no less than 20 µM against CYP2D6. In data set [2], this compound gave a BA_% of 83.2%.
For the compound `COc1cnc(C(=O)Nc2ccc(F)c([C@@]3(C)N=C(N)O[C@H](C(C)(F)F)[C@@H]3F)c2)cn1` [Compound I-42], the Kp at 2 h at P-gp was 2.07. In addition, the “ER ratio (Cell: MDR1/LLC-PK1)” value in data set [1] was 1.5. Moreover, in data set [2], the BA_% is given as 28.7%.
With `C[C@H]1SC(N)=N[C@](C)(c2nc(NC(=O)c3cnc(OCF)cn3)ccc2F)[C@H]1F` [Compound I-3], the Kp at 2 h at P-gp turned out to be 5.16. In addition, the IC50 against CYP2C9 was no less than 10 µM. Moreover, the BA_% in data set [2] is recorded as 38.8%.
Regarding `COc1cnc(C(=O)Nc2ccc(F)c([C@@]3(C)N=C(N)S[C@H](C)[C@@H]3F)c2)cn1` [Compound I-8], the Kp at 2 h on P-gp was found to be 2.22. The “ER ratio (Cell: MDR1/LLC-PK1)” value in data set [1] was found to be 1.3. Further, in data set [2], the BA_% is 27.4%.
As for `C[C@H]1SC(N)=N[C@](C)(c2cc(NC(=O)c3cnc(OCC(F)F)cn3)ccc2F)[C@H]1F` [Compound I-48], the Kp at 2 h on P-gp is 5.57. In addition, the half-inhibitory concentration (IC50) against CYP2D6 was no less than 10 µM. Further, in data set [1], the “ER ratio (Cell: MDR1/LLC-PK1)” value is 1.1.
As to `CC(F)(F)[C@H]1OC(N)=N[C@](C)(c2cc(NC(=O)c3ccc(C#N)cn3)ccc2F)[C@H]1F` [Compound I-40], the Kp at 2 h at P-gp stood at 6.97. Further, the IC50 against CYP2C9 and on CYP2D6 was no less than 20 µM each time. The “ER ratio (Cell: MDR1/LLC-PK1)” value in data set [1] is reported as 1.1. Further, the BA_% in data set [2] is listed as 36.2%.
For the compound `C[C@H]1[C@@H](C(F)(F)F)OC(N)=N[C@]1(C)c1cc(NC(=O)c2cnc(OCF)cn2)ccc1F` [Compound I-41], at P-gp, the “Kp ratio (2 mg/kg, po, 2 hr)” value amounted to 2.66. For the same compound, in data set [1], the “ER ratio (Cell: MDR1/LLC-PK1)” value is listed as 1.4. In addition, the BA_% in data set [2] came out at 35.2%.
`C[C@H]1SC(N)=N[C@](C)(c2cc(NC(=O)c3cnc(OC(F)F)cn3)ccc2F)[C@H]1F` [Compound I-47]: the Kp at 2 h on P-gp came out at 2.12. In data set [1], the “ER ratio (Cell: MDR1/LLC-PK1)” value was 1.3.
Regarding `C[C@H]1SC(N)=N[C@](C)(c2cc(NC(=O)c3ccc(F)cn3)ccc2F)[C@H]1F` [Compound I-116], the Kp at 2 h on P-gp was 4.54. This compound gave an IC50 against CYP2D6 of no less than 20 µM. Also, the “ER ratio (Cell: MDR1/LLC-PK1)” value in data set [1] came to 1.1. This compound also displayed a BA_% in data set [2] of 78.7%.
Turning to `C[C@H]1SC(N)=N[C@](C)(c2cc(NC(=O)c3cnc(OCC(F)(F)F)cn3)ccc2F)[C@H]1F` [Compound I-46], at P-gp, the Kp at 2 h is 6.13. For the same compound, the IC50 against CYP2D6 was no less than 10 µM. Further, the “ER ratio (Cell: MDR1/LLC-PK1)” value in data set [1] turned out to be 1.5. In data set [2], this compound yielded a BA_% of 22.2%.
As for `C[C@H]1[C@@H](C(F)(F)F)OC(N)=N[C@]1(C)c1cc(NC(=O)c2cnc(OCF)cn2)ccc1F` [Compound I-30], at P-gp, the Kp at 2 h was determined as 3.63. For the same compound, the IC50 on CYP2C9 is no less than 20 µM.
Turning to `C[C@H]1SC(N)=N[C@](C)(c2nc(NC(=O)c3ccc(F)cn3)ccc2F)[C@H]1F` [Compound I-2], at P-gp, the Kp at 2 h was determined as 0.959. On CYP2C9, this compound showed an IC50 of no less than 10 µM. This compound also registered a BA_% in data set [2] of 51.3%.
As for `C[C@]1(c2cc(NC(=O)c3ccc(C#N)cn3)ccc2F)N=C(N)O[C@H]2[C@@H]1OCC2(F)F` [Compound I-35], the Kp at 2 h at P-gp amounted to 5.15. For the same compound, the IC50 against CYP2C9 and at CYP2D6 was no less than 20 µM in each case. Besides, the “ER ratio (Cell: MDR1/LLC-PK1)” value in data set [1] is reported as 2.1.
Take `C[C@@]1(c2cc(NC(=O)c3ccc(C#N)cn3)ccc2F)C[C@@](C)(C(F)(F)F)OC(N)=N1` [Compound I-7]: the Kp at 2 h on P-gp was 4.21. Further, the BA_% in data set [2] is reported as 32.8%.
Take `C[C@H]1SC(N)=N[C@](C)(c2nc(NC(=O)c3ccc(C#N)cn3)ccc2F)[C@H]1F` [Compound I-1]: the Kp at 2 h at P-gp worked out at 4.12. In addition, the half-maximal inhibitory concentration (IC50) on CYP2C9 and against CYP2D6 was no less than 20 µM each time. In addition, the “ER ratio (Cell: MDR1/LLC-PK1)” value in data set [1] is reported as 1.2. For the same compound, the BA_% in data set [2] is reported as 66.7%.

As a reminder, the IC50 is the concentration needed to halve the response being measured. Low readings indicate greater potency in that assay, high ones weaker potency in that assay.

For the origin of these results see patent US20170073337A1, “DIHYDROTHIAZINE AND DIHYDROOXAZINE DERIVATIVES HAVING BACE1 INHIBITORY ACTIVITY” (Shionogi & Co., Ltd., priority 2014, published 2017).
